Source: PMC3612826, “Structural-Functional Analysis of 2,1,3-Benzoxadiazoles and Their N-oxides As HIV-1 Integrase Inhibitors” (Acta Naturae, 2013)

Columns and labels:
recombinant HIV-1 IN = recombinant HIV-1 IN (Human immunodeficiency virus type 1 group M subtype B, UniProt P12497); test: biochemical; assay type: biochemical
wild-type HIV-1 IN = wild-type HIV-1 IN (Human immunodeficiency virus type 1 group M subtype B, UniProt P12497); test: biochemical; assay type: biochemical

For `[O-][n+]1onc2ccccc21` [Compound 1, unsubstituted BFX], the IC50 (recombinant HIV-1 IN) was > 1000 µM, the “Inhibitory potential, 3'-processing” value (recombinant HIV-1 IN) was “exhibited no inhibitory potential” and the IC50 (wild-type HIV-1 IN) was > 1000 µM. The “Inhibitory potential, strand transfer” value (wild-type HIV-1 IN) was “exhibited no inhibitory potential”.
`O=[N+]([O-])c1cc([N+](=O)[O-])c2no[n+]([O-])c2c1-[n+]1ccccc1` [Compound 24] gave an IC50 (recombinant HIV-1 IN) of 75 ± 15 µM and an IC50 (wild-type HIV-1 IN) of 80 ± 20 µM.
